Data taken from PubChem BioAssay (NCI).
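Five concentrations, 48 hours, 96-well plates. At the TGI there is no net growth.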 Where a SMILES comes first, the peptide text is derived from it. [ ]: non-standard residue; d: D form. The star is where a group is joined. ξ: configuration not given here. ξNMeF = CNC(Cc1ccccc1)C(=O)O; NMeV = CN[C@H](C(=O)O)C(C)C; Boc = CC(C)(C)OC(=O)*; OBn = c1ccc(CO*)cc1

Experiments:
Experiment in all cases: growth of human tumour cells (NCI), 48 h
[1] = system: K-562 leukemia
[2] = system: SK-MEL-5 melanoma
[3] = system: A549 NSCLC
[4] = system: IGROV1 ovarian
[5] = system: KM12 colon
[6] = system: SK-OV-3 ovarian
[7] = system: M14 melanoma
[8] = system: UO-31 renal
[9] = system: U251 CNS
[10] = system: OVCAR-4 ovarian
[11] = system: RPMI-8226 leukemia
[12] = system: COLO 205 colon
[13] = system: HCT-116 colon
[14] = system: UACC-62 melanoma
[15] = system: NCI-H23 lung
[16] = system: SNB-75 CNS
[17] = system: OVCAR-5 ovarian
[18] = system: M19-MEL melanoma
[19] = system: LXFL 529 NSCLC
[20] = system: HOP-62 NSCLC
[21] = system: DMS 273 small cell lung
[22] = system: HT29 colon
[23] = system: MALME-3M melanoma
[24] = system: HCC-2998 colon
[25] = system: SW-620 colon
[26] = system: CCRF-CEM leukemia
[27] = system: HOP-92 NSCLC
[28] = system: UACC-257 melanoma
[29] = system: SR leukemia
[30] = system: DLD-1 colon
[31] = system: RXF 393 renal
[32] = system: SF-295 CNS
[33] = system: OVCAR-8 ovarian
[34] = system: NCI-H522 lung
[35] = system: SNB-19 CNS
[36] = system: SF-268 CNS
[37] = system: LOX IMVI melanoma
[38] = system: MOLT-4 leukemia
[39] = system: 786-0 renal
[40] = system: SN12C renal
[41] = system: A498 renal
[42] = system: SNB-78 CNS
[43] = system: NCI-H226 lung
[44] = system: KM20L2 colon
[45] = system: HL-60(TB) leukemia
[46] = system: DMS 114 small cell lung
[47] = system: TK-10 renal
[48] = system: OVCAR-3 ovarian
[49] = system: CAKI-1 renal
[50] = system: NCI-H460 lung
[51] = system: ACHN renal
[52] = system: RXF-631 renal
[53] = system: HOP-18 NSCLC
[54] = system: SK-MEL-2 melanoma
[55] = system: HCT-15 colon
[56] = system: SK-MEL-28 melanoma
[57] = system: EKVX NSCLC
[58] = system: SF-539 CNS
[59] = system: XF 498 CNS

## Cn1[nH]cc2ccc3nc4ccccc4c(=O)c3c21
[1]
  TGI: > 100 µM
[2]
  TGI: 35.1 µM
[3]
  TGI: > 66 µM
[4]
  TGI: > 100 µM
[5]
  TGI: > 100 µM
[6]
  TGI: > 100 µM
[7]
  TGI: > 100 µM
[8]
  TGI: 52.3 µM
[9]
  TGI: 30.7 µM
[10]
  TGI: 75.8 µM
[11]
  TGI: 67.6 µM
[12]
  TGI: 92.6 µM
[13]
  TGI: > 100 µM
[14]
  TGI: 26.6 µM
[15]
  TGI: 53.4 µM
[16]
  TGI: 94.5 µM
[17]
  TGI: 92.8 µM
[18]
  TGI: 46.8 µM
[19]
  TGI: > 100 µM
[20]
  TGI: > 83.9 µM
[21]
  TGI: > 100 µM
[22]
  TGI: > 100 µM
[23]
  TGI: 68.7 µM
[24]
  TGI: 90.5 µM
[25]
  TGI: > 100 µM
[26]
  TGI: > 100 µM
[27]
  TGI: > 83 µM
[28]
  TGI: > 74 µM
[29]
  TGI: > 100 µM
[30]
  TGI: > 100 µM
[31]
  TGI: 44.4 µM
[32]
  TGI: > 96.3 µM
[33]
  TGI: > 94.9 µM
[34]
  TGI: 64.9 µM
[35]
  TGI: > 100 µM
[36]
  TGI: > 100 µM
[37]
  TGI: 46.5 µM
[38]
  TGI: > 95.1 µM
[39]
  TGI: > 100 µM
[40]
  TGI: > 100 µM
[41]
  TGI: 67.7 µM
[42]
  TGI: > 83.9 µM
[43]
  TGI: 45.5 µM
[44]
  TGI: > 100 µM
[45]
  TGI: 90.8 µM
[46]
  TGI: > 100 µM
[47]
  TGI: 72.2 µM
[48]
  TGI: > 100 µM
[49]
  TGI: 86.5 µM
[50]
  TGI: > 89.5 µM
[51]
  TGI: 98.6 µM
[52]
  TGI: > 66.1 µM
[53]
  TGI: > 100 µM
[54]
  TGI: > 100 µM
[55]
  TGI: 97.4 µM
[56]
  TGI: > 88.5 µM
[57]
  TGI: > 100 µM

## C/C=C/C(=O)Oc1cccc2cccnc12
[1]
  TGI: > 100 µM
[2]
  TGI: 51 µM
[3]
  TGI: > 100 µM
[4]
  TGI: > 94.7 µM
[5]
  TGI: 42.4 µM
[6]
  TGI: > 100 µM
[7]
  TGI: 12 µM
[8]
  TGI: > 84.7 µM
[9]
  TGI: 12.9 µM
[58]
  TGI: 40.1 µM
[10]
  TGI: 22 µM
[11]
  TGI: > 96.1 µM
[12]
  TGI: 35.9 µM
[13]
  TGI: 18.1 µM
[14]
  TGI: > 39.5 µM
[15]
  TGI: 29 µM
[16]
  TGI: > 75.6 µM
[17]
  TGI: > 100 µM
[18]
  TGI: 38.6 µM
[19]
  TGI: > 100 µM
[20]
  TGI: > 100 µM
[21]
  TGI: 46.9 µM
[22]
  TGI: 58 µM
[23]
  TGI: 8.94 µM
[24]
  TGI: 46.1 µM
[25]
  TGI: 38.5 µM
[26]
  TGI: 31.7 µM
[27]
  TGI: 57.9 µM
[28]
  TGI: 40.9 µM
[29]
  TGI: > 100 µM
[30]
  TGI: 21 µM
[31]
  TGI: 41.1 µM
[32]
  TGI: > 100 µM
[33]
  TGI: 54.3 µM
[34]
  TGI: 5.15 µM
[35]
  TGI: > 100 µM
[36]
  TGI: 14.5 µM
[37]
  TGI: > 84.6 µM
[38]
  TGI: > 100 µM
[39]
  TGI: > 100 µM
[40]
  TGI: > 78.2 µM
[42]
  TGI: > 100 µM
[43]
  TGI: 68.6 µM
[44]
  TGI: > 35.5 µM
[45]
  TGI: > 33.8 µM
[46]
  TGI: 16.8 µM
[47]
  TGI: > 100 µM
[48]
  TGI: > 73.6 µM
[49]
  TGI: 93.8 µM
[50]
  TGI: 23 µM
[51]
  TGI: > 100 µM
[59]
  TGI: 55.2 µM
[53]
  TGI: > 100 µM
[55]
  TGI: 33.4 µM
[56]
  TGI: 61.6 µM
[57]
  TGI: > 81.3 µM

## CC(C)[C@@H](C(=O)N(C)[C@H](C(=O)N1CCC[C@H]1C(=O)OCc1ccccc1)C(C)C)N(C)C(=O)C(Cc1ccccc1)N(C)C(=O)[C@H](NC(=O)OC(C)(C)C)C(C)C (some centres undefined) (Boc-[dV][ξNMeF][NMeV][NMeV]P-OBn)
[1]
  TGI: > 31.6 µM
[2]
  TGI: 23 µM
[3]
  TGI: > 31.6 µM
[4]
  TGI: > 31.6 µM
[6]
  TGI: > 31.6 µM
[7]
  TGI: > 100 µM
[8]
  TGI: > 31.6 µM
[9]
  TGI: > 31.6 µM
[58]
  TGI: > 31.6 µM
[10]
  TGI: > 100 µM
[11]
  TGI: > 31.6 µM
[12]
  TGI: > 100 µM
[13]
  TGI: > 31.6 µM
[14]
  TGI: > 31.6 µM
[15]
  TGI: > 100 µM
[16]
  TGI: > 100 µM
[17]
  TGI: > 31.6 µM
[18]
  TGI: > 31.6 µM
[19]
  TGI: > 100 µM
[20]
  TGI: > 31.6 µM
[21]
  TGI: > 31.6 µM
[22]
  TGI: > 31.6 µM
[23]
  TGI: > 100 µM
[25]
  TGI: > 31.6 µM
[26]
  TGI: > 31.6 µM
[27]
  TGI: > 31.6 µM
[28]
  TGI: > 31.6 µM
[29]
  TGI: > 31.6 µM
[30]
  TGI: > 31.6 µM
[31]
  TGI: > 31.6 µM
[32]
  TGI: > 31.6 µM
[33]
  TGI: > 31.6 µM
[34]
  TGI: > 100 µM
[35]
  TGI: > 31.6 µM
[36]
  TGI: > 31.6 µM
[37]
  TGI: > 31.6 µM
[38]
  TGI: > 31.6 µM
[39]
  TGI: > 69.7 µM
[40]
  TGI: > 100 µM
[41]
  TGI: > 31.6 µM
[42]
  TGI: > 31.6 µM
[43]
  TGI: > 100 µM
[44]
  TGI: > 31.6 µM
[45]
  TGI: > 31.6 µM
[46]
  TGI: > 31.6 µM
[47]
  TGI: > 31.6 µM
[48]
  TGI: > 67.2 µM
[49]
  TGI: > 31.6 µM
[50]
  TGI: > 31.6 µM
[51]
  TGI: > 100 µM
[59]
  TGI: 27.9 µM
[53]
  TGI: > 100 µM
[54]
  TGI: > 31.6 µM
[55]
  TGI: > 31.6 µM
[56]
  TGI: > 31.6 µM
[57]
  TGI: > 31.6 µM
